pEC50, pIC50: −log10 of the molar value. Where a SMILES comes first, the peptide text is derived from it. Bridges are numbered along the chain shown (N, C = ends). [ ]: non-standard residue; d: D form. The star is where a group is joined. Pentanoyl(5-guanidino) = NC(N)=NCCCCC(=O)*; dNle = CCCC[C@@H](N)C(=O)O; Nle = CCCC[C@H](N)C(=O)O; Ava = NCCCCC(=O)O
Columns and labels:
human MCH-2R [1] = target: T1, human MCH-2R (Homo sapiens, UniProt Q969V1); assay: Aequorin bioluminescence functional assay, MCH-2R agonist activity; conditions: for MCH-2R Agonist Activation %: 293-AEQ17 cells expressing human MCH-2R
human MCH-2R [2] = target: T1, human MCH-2R; assay: MCH-2R binding assay, inhibition of [125I]-human MCH binding to membranes; set-up: expressed in transfected cells; host or cells: 293-AEQ17 (aequorin-expressing HEK-293 reporter line); conditions: inhibition of [125I]-human MCH (Phe13, Tyr19) binding, cell membranes
human MCH-1R = human MCH-1R (Homo sapiens, UniProt Q99705); assay: MCH-1R binding assay, inhibition of [125I]-human MCH binding to membranes
rat MCH-1R [3] = target: T2, rat MCH-1R (Rattus norvegicus, UniProt P97639); assay: Aequorin bioluminescence functional assay, MCH-1R agonist activity; conditions: for MCH-1R Agonist Activation %: 293-AEQ17 cells expressing rat MCH-1R
rat MCH-1R [4] = target: T2, rat MCH-1R; assay: Antagonist assay, 293-AEQ17 cells expressing rat MCH-1R; format: cell-based; set-up: expressed in transfected cells; host or cells: 293-AEQ17 (aequorin-expressing HEK-293 reporter line); conditions: for Kb: determined per Trends in Pharmacol. Sci. 14:237-239, 1993
Procedure: Cells were grown in DMEM (high glucose) supplemented with 10% FBS (Hyclone), 500 μg/ml G418, 200 μg/ml hygromycin and 25 mM HEPES in T75 flasks.
The assay itself involved charging apoaequorin with coelenterazine cp(Molecular Probes, C-14260) and was performed as follows:
1. Confluent T75 flasks are rinsed 1× with 12 ml Hams F12 medium+300 μM glutathione+0.1% FBS.
2. The cells were charged by adding 8 ml Hams F12+0.1% FBS+300 μM glutathione+10 μM coelenterazine, incubate at 37° C. for 1 hour.
4. ECB (6 ml) is added to the flask and the cells are dissociated with a rubber-tipped scraper, centrifuged for 5 minutes at 2500 rpm and the cell pellet resuspended in 5 ml ECB. The cells are counted and diluted to 5×10^5/ml.
Binding and agonist activity at the MCH-1R and MCH-2R was determined as described in Examples 2 and 3. Antagonist IC50 was determined as described in Example 4. Kb was determined using the procedures described in Trends in Pharmacol. Sci. 14:237-239, 1993.

T2 sequence (P97639 whole entry): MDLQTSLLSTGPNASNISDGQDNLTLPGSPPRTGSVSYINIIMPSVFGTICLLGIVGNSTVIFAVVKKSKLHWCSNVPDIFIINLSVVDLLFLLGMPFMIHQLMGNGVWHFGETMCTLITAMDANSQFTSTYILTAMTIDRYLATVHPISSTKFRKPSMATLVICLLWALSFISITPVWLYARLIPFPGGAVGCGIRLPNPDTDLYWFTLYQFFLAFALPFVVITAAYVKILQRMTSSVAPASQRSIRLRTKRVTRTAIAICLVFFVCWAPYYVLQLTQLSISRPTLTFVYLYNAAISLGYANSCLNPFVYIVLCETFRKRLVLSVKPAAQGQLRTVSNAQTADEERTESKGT
T1 sequence (Q969V1 whole entry): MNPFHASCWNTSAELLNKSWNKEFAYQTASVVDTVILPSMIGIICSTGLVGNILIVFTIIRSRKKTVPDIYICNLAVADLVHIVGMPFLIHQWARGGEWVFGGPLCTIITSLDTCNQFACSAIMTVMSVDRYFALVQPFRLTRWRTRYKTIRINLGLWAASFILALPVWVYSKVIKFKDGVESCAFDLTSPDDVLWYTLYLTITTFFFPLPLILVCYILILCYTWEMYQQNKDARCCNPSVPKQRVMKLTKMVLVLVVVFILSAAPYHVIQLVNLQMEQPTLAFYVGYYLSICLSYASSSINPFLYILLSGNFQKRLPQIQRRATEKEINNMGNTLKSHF
human MCH-1R, sequence (Q99705 whole entry): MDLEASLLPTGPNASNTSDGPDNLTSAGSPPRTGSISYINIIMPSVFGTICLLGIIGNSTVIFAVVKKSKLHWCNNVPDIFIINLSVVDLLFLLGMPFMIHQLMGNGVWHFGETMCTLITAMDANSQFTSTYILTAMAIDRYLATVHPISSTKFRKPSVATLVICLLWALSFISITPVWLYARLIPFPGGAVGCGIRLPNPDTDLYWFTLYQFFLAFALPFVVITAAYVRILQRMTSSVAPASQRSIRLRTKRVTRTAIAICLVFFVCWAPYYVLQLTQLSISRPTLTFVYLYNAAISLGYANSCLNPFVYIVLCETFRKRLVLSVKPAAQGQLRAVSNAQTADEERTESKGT

pEC50 (human MCH-2R [1])	MCH-2R Agonist Activation % (human MCH-2R [1])	pIC50 (human MCH-2R [2])	pIC50 (human MCH-1R)	pEC50 (rat MCH-1R [3])	MCH-1R Agonist Activation % (rat MCH-1R [3])	pIC50 (rat MCH-1R [4])	Kb (rat MCH-1R [4])	SMILES
< 5.00	14%	5.40	8.10	< 5.00	6%	–	–	CSCC[C@@H]1NC(=O)[C@@H](NC(=O)CCCNC(=N)N)CSSC[C@@H](C(N)=O)NC(=O)CCCCNC(=O)CCCCNC(=O)[C@H](Cc2ccc(O)cc2)NC(=O)[C@H](C(C)C)NC(=O)[C@H](CCCNC(=N)N)NC(=O)CNC(=O)[C@H](CC(C)C)NC1=O [SEQ. ID. NO. 12]
< 5.00	45%	–	6.85	< 5.00	–	7.17	0.029 µM	CC(C)C[C@@H]1NC(=O)[C@H](C)NC(=O)[C@@H](NC(=O)CCCCNC(=N)N)CSSC[C@@H](C(N)=O)NC(=O)CCCCNC(=O)CCCCNC(=O)[C@H](Cc2ccc(O)cc2)NC(=O)[C@H](C(C)C)NC(=O)[C@H](CCCNC(=N)N)NC(=O)CNC1=O [SEQ. ID. NO. 19] ({Pentanoyl(5-guanidino)}-CALGRVY[Ava][Ava]C-NH2; disulfide 1-10 (inferred); C-terminus assumed)
< 5.00	35%	–	7.31	< 5.00	3.5%	8.16	0.003 µM	CSCC[C@@H]1NC(=O)[C@@H](NC(=O)CCCCNC(=N)N)CSSC[C@@H](C(N)=O)NC(=O)CCCNC(=O)CCCNC(=O)[C@H](Cc2ccc(O)cc2)NC(=O)[C@H](C(C)C)NC(=O)[C@H](CCCNC(=N)N)NC(=O)CNC(=O)[C@H](CC(C)C)NC1=O [SEQ. ID. NO. 13]
< 5.00	28%	–	6.87	< 5.00	2%	7.86	0.006 µM	CSCC[C@@H]1NC(=O)[C@@H](NC(=O)[C@@H](CCCNC(=N)N)NC(C)=O)CSSC[C@@H](C(N)=O)NC(=O)CCCCNC(=O)CCCCNC(=O)[C@H](Cc2ccc(O)cc2)NC(=O)[C@H](C(C)C)NC(=O)[C@H](CCCNC(=N)N)NC(=O)CCCCNC(=O)CCCCNC1=O [SEQ. ID. NO. 33] (Ac-[dR]CM[Ava][Ava]RVY[Ava][Ava]C-NH2; disulfide 2-11 (inferred); C-terminus assumed)
< 5.00	59%	–	7.96	< 5.00	3%	7.86	0.006 µM	CCCC[C@@H]1NC(=O)[C@@H](NC(=O)CCCCNC(=N)N)CSSC[C@@H](C(N)=O)NC(=O)CCCCNC(=O)CCCCNC(=O)[C@H](Cc2ccc(O)cc2)NC(=O)[C@H](C(C)C)NC(=O)[C@H](CCCNC(=N)N)NC(=O)CNC(=O)[C@H](CC(C)C)NC1=O [SEQ. ID. NO. 16] ({Pentanoyl(5-guanidino)}-C[Nle]LGRVY[Ava][Ava]C-NH2; disulfide 1-10; C-terminus assumed)
< 5.00	–	6.46	8.43	6.23	82%	–	–	CSCC[C@@H]1NC(=O)[C@@H](NC(=O)[C@H](CCCNC(=N)N)NC(C)=O)CSSC[C@@H](C(N)=O)NC(=O)[C@@H]2CCCN2C(=O)[C@H](CCCNC(=N)N)NC(=O)[C@H](Cc2ccc(O)cc2)NC(=O)[C@H](C(C)C)NC(=O)[C@H](CCCNC(=N)N)NC(=O)CCCCNC(=O)CCCCNC1=O [SEQ. ID. NO. 3] (Ac-RCM[Ava][Ava]RVYRPC-NH2; disulfide 2-11; C-terminus assumed)
< 5.00	16%	–	7.06	< 5.00	3%	7.97	0.0046 µM	CSCC[C@@H]1NC(=O)[C@@H](NC(=O)[C@H](CCCNC(=N)N)NC(C)=O)CSSC[C@@H](C(N)=O)NC(=O)CCCCNC(=O)CCCCNC(=O)[C@H](Cc2ccc(O)cc2)NC(=O)[C@H](C(C)C)NC(=O)[C@H](CCCNC(=N)N)NC(=O)CCCCNC(=O)CCCCNC1=O [SEQ. ID. NO. 30] (Ac-RCM[Ava][Ava]RVY[Ava][Ava]C-NH2; disulfide 2-11 (inferred); C-terminus assumed)
< 5.00	91%	–	7.55	< 5.00	3%	8.27	0.0024 µM	CCCC[C@H]1NC(=O)[C@H](CC(C)C)NC(=O)[C@H](CCSC)NC(=O)[C@@H](NC(=O)CCCCNC(=N)N)CSSC[C@@H](C(N)=O)NC(=O)CCCCNC(=O)CCCCNC(=O)[C@H](Cc2ccc(O)cc2)NC(=O)[C@H](C(C)C)NC(=O)[C@H](CCCNC(=N)N)NC1=O [SEQ. ID. NO. 27] ({Pentanoyl(5-guanidino)}-CML[dNle]RVY[Ava][Ava]C-NH2; disulfide 1-10; C-terminus assumed)
< 5.00	91%	–	8.52	< 5.00	3%	8.54	0.00125 µM	CSCC[C@@H]1NC(=O)[C@@H](NC(=O)CCCCNC(=N)N)CSSC[C@@H](C(N)=O)NC(=O)CCCCNC(=O)CCCCNC(=O)[C@H](Cc2ccc(O)cc2)NC(=O)[C@H](C(C)C)NC(=O)[C@H](CCCNC(=N)N)NC(=O)CNC(=O)[C@H](CC(C)C)NC1=O [SEQ. ID. NO. 11]
< 5.00	91%	–	7.21	< 5.00	3%	7.25	0.024 µM	CSCC[C@@H]1NC(=O)[C@@H](NC(=O)CCCCNC(=N)N)CSSC[C@@H](C(N)=O)NC(=O)CCCCNC(=O)CCCCNC(=O)[C@H](Cc2ccc(O)cc2)NC(=O)[C@H](C(C)C)NC(=O)[C@H](CCCNC(=N)N)NC(=O)CCCCNC(=O)CCCCNC1=O [SEQ. ID. NO. 32] ({Pentanoyl(5-guanidino)}-CM[Ava][Ava]RVY[Ava][Ava]C-NH2; disulfide 1-10; C-terminus assumed)
< 5.00	32%	–	6.75	< 5.00	3.6%	8.17	0.003 µM	CSCC[C@@H]1NC(=O)[C@@H](NC(=O)CCCCNC(=N)N)CSSC[C@@H](C(N)=O)NC(=O)CCNC(=O)CCNC(=O)[C@H](Cc2ccc(O)cc2)NC(=O)[C@H](C(C)C)NC(=O)[C@H](CCCNC(=N)N)NC(=O)CNC(=O)[C@H](CC(C)C)NC1=O [SEQ. ID. NO. 14]
< 5.00	38%	–	6.54	< 5.00	3.8%	7.12	0.0329 µM	CSCC[C@@H]1NC(=O)[C@@H](NC(=O)CCCCNC(=N)N)CSSC[C@@H](C(=O)O)NC(=O)CCCCNC(=O)CCCCNC(=O)[C@H](Cc2ccc(O)cc2)NC(=O)[C@H](C(C)C)NC(=O)[C@H](CCCNC(=N)N)NC(=O)CNC(=O)[C@H](CC(C)C)NC1=O [SEQ. ID. NO. 18]
< 5.00	38%	–	7.54	< 5.00	3.4%	8.33	0.002 µM	CSCC[C@@H]1NC(=O)[C@@H](NC(=O)CCCCNC(=N)N)CSSC[C@@H](C(N)=O)NC(=O)CCCCNC(=O)CCCCNC(=O)[C@H](Cc2ccc(O)cc2)NC(=O)[C@H](C)NC(=O)[C@H](CCCNC(=N)N)NC(=O)CNC(=O)[C@H](CC(C)C)NC1=O [SEQ. ID. NO. 20] ({Pentanoyl(5-guanidino)}-CMLGRAY[Ava][Ava]C-NH2; disulfide 1-10; C-terminus assumed)
